Results taken from US8017618B2, “Antifolate agent combinations in the treatment of cancer” (Tracon Pharmaceuticals, Inc., priority 2006, dated 2011).
Like-named read-outs stand apart in the source and are kept apart here.

Tests used:
[1] = Oral and intravenous bioavailability study of MX via a single bolus administration to Sprague Dawley rats (plasma LC-MS/MS, noncompartmental PK); assay type: in vivo
Method: Oral and Intravenous Bioavailability Study of MX Via a Single Bolus Administration to Sprague Dawley Rats (Non-GLP). The studies described below were performed to evaluate the bioavailability of methoxyamine (MX) at the safe dose level by comparison of the pharmacokinetic parameters after single bolus oral and intravenous administrations of MX
Test Animals. Thirty male and thirty female Sprague Dawley rats, 250-350 g, 7-10 weeks of age, were used during the study.
Dose Preparation and Concentration. One dose solution was prepared on the same day of dose administration, adjusted for the 98% purity of the test article, to achieve a concentration of 4.00 mg/mL “active” MX, 816.77 mg of MX was dissolved into 5% dextrose in a 200-mL volumetric flask. The prepared solution was equally divided into two amber bottles designated for either oral or IV administration. Aliquots were taken for analysis at preparation and after dosing, transported on dry ice and stored at <−70° C.
Dose Administration. All animals were weighed on the day of dose administration. Individual animal doses were based on this body weight. A constant dose volume of 5 mL/kg was used. IV doses were administered through a single bolus injection into the tail vein using a 3-mL syringe attached to a 26G×1″ needle. The IV dose was administered at a rate of approximately 2 mL/min. Oral doses were administered as a single bolus with an 18G×2″ feeding needle attached to a 3-mL syringe.
Blood Sample Collection. Blood samples were collected at 5, 15, 30 mins, and 1, 2, 4, 6, 8, 12 and 24 hrs post-dose, with collection at two time points for each animal. Blood samples were collected through the jugular vein for the earlier time point and through the abdominal vein at sacrifice for the later time point. The blood was transferred from the drawing syringe into a 2 mL blood collection tube containing K3-EDTA as the anticoagulant and inverted to mix. Abdominal vein blood collection was performed immediately following CO2 euthanasia.
Plasma Sample Preparation and Storage Conditions. The blood tube was placed on wet ice before centrifugation for plasma preparation. Whole blood samples were centrifuged at 3,000 rpm at 4° C., for 10 min. Plasma was pipetted into tubes and placed on dry ice initially and later stored at <−70° C.
Mass spectrometry (MS). Mass spectrometric detection was performed by electrospray ionization with positive turbo spray, according to the specifications listed below.
Plasma Sample for LC-MS/MS Analysis. Individual plasma samples were thawed at ambient temperature and 250 μL was aliquoted for analysis if a dilution was not needed. Samples taken at 5 min to 1 hr from IV dosed animals or 15 min to 8 hr from orally dosed animals required 5-to 40-fold dilution to fall in the linear range of the method (1 to 1,000 ng/mL). For the samples requiring dilution, an appropriate volume was taken and mixed with blank rat plasma containing the same anticoagulant to make a total volume of 250 μL. The quantitation results were corrected with the dilution factor. Plasma was prepared for LC-MS/MS analysis as follows: • Plasma aliquots were vortexed for 30 seconds, and centrifuged at 14,000 rpm for 10 min to precipitate the interfering particles. • A 100 μL aliquot was taken from the supernatant and placed into a 1.5 mL microcentrifuge tube. • To the 100 μL plasma aliquot, 310 μL of H2O: formic acid (2:1), 30 μL of acenocoumerol (IS) in H2O (10 μg/mL) and 100 μL of diethylaminobenzaldehyde in 2:1H2O: formic acid solution (10 mg/mL) were added and mixed well. • The mixture was then incubated in a water bath at 80° C. for 2 hrs. After incubation, the supernatant was transferred into a HPLC vial for LC-MS/MS quantitation.
Methoxyamine (MX) Pharmacokinetics and Bioavailability Analysis. Pharmacokinetics Analysis. […]

NCI-H460 tumors = test: Tumors in nude mice: NCI-H460 NSCLC cell line model; assay type: in vivo, female athymic HSD nude mice; settings: MX 4 mg/kg with pemetrexed 150 mg/kg, five daily i.p. injections
Method: (§1) Tumors in Nude Mice. […] Animals received five daily intraperitoneal injections of either saline, pemetrexed alone (150 mg/kg), MX alone (4 mg/kg), or a combination of pemetrexed (150 mg/kg) and MX (4 mg/kg) with a pemetrexed to MX ratio of […].

HCT116 tumors = test: Tumors in nude mice: HCT116 colon cancer cell line model; assay type: in vivo, female athymic HSD nude mice; settings: MX 4 mg/kg with pemetrexed 150 mg/kg, five daily i.p. injections
Method: as §1

topoisomerase II = test: Topoisomerase II-mediated DNA cleavage of AP or MX-AP site substrates; assay type: biochemical; settings: AP site at a topoisomerase II cleavage site, incubated with MX
Method: Analysis of the effect of AP site or MX-AP site on topoisomerase II-mediated DNA cleavage. A position-specific apurinic site was incorporated by replacing a single nucleoside with deoxyuridine at a topoisomerase II cleavage site and then removing the uracil base with uracil-DNA glycosylase, generating AP sites that further are incubated with MX to produce MX-AP sites (FIG. 5A).
First, it was determined whether APE has a differential effect between regular AP sites and MX-AP sites located in a position specific site for topo II cleavage.

H460 cells = settings: for formation of AP sites: pemetrexed 100, 200 and 400 μM, 24 hours, induction proportional to dose
Method: To determine the effect of pemetrexed+methoxyamine (MX) compared to pemetrexed alone on the number of AP sites generated, an aldehyde reactive probe (ARP) reagent was used to measure AP sites formed by pemetrexed and blocked by MX. ARP and MX have a similar reactivity with AP sites, and react specifically with an aldehyde group, an open-ring form of the AP sites. […] H460 cells were treated with pemetrexed (0, 100, 200 or 400 μm) for 24 hours. DNA (15 μg) was then extracted from cells and incubated with 1 mM ARP at 37° C. for 10 min. DNA was precipitated and washed with ethanol, then resuspended in TE buffer (10 mM Tris-HCl, pH 7.2, 1 mM EDTA) and denatured at 100° C. for 5 min. The DNA was then quickly chilled on ice and mixed with an equal amount of ammonium acetate (2 M). Single-stranded DNA was then immobilized on a nitrocellulose membrane using a vacuum filter device. The membrane was incubated with streptavidin-conjugated horseradish peroxidase at room temperature for 30 min and rinsed with washing buffer (20 mM Tris-HCl, 1 mM EDTA, 0.26 M NaCl, 1% Tween-20). ARP-AP sites were visualized with ECL reagents (Amersham, Piscataway, N.J.). […] The effect of the combination of 200 μM pemetrexed and 6 mM MX was viewed at 24 hrs, 48 hrs and 72 hrs.

[2] = both sexes, Sprague-Dawley, rat, in vivo, po, 20 mg/kg
[3] = female, Sprague-Dawley, rat, in vivo, 20 mg/kg
[4] = female, Sprague-Dawley, rat, in vivo, iv, 20 mg/kg
[5] = female, Sprague-Dawley, rat, in vivo, po, 20 mg/kg
[6] = male, Sprague-Dawley, rat, in vivo, 20 mg/kg
[7] = male, Sprague-Dawley, rat, in vivo, iv, 20 mg/kg
[8] = male, Sprague-Dawley, rat, in vivo, po, 20 mg/kg

Structure (SMILES): CON [MX, Methoxyamine]
- half-life ([1]; Sprague-Dawley, rat, in vivo, po): > 4 h
- serum levels following oral dosing versus target Cmax associated with activity in mouse models of human cancer ([1]; Sprague-Dawley, rat, in vivo, po, 20 mg/kg): > 50 ng/mL
- half-life ([1]; both sexes, Sprague-Dawley, rat, in vivo): 4 to 6 h
- Tmax [1, 2]: 0.5 to 1 h
- bioavailability [1, 2]: ~100%
- Bioavailability (absolute, oral to IV AUC0-∞5 ratio) [1, 3]: 94%
- F [1, 3]: 0.94
- distribution phase complete (time postdose) ([1]; female, Sprague-Dawley, rat, in vivo, iv): approximately 2 hrs
- AUC0-∞5 (AUC0-∞ normalized to a total dose amount of 5 mg MX) [1, 4]: 13892 ng·h/mL
- AUC(0-inf) [1, 4]: 13100 ng·h/mL
- AUC(0-t) [1, 4]: 13000 ng·h/mL
- Cmax [1, 4]: 11000 ng/mL
- Tmax [1, 4]: 0.08 h
- half-life [1, 4]: 4.6 h
- AUC(0-inf) [1, 5]: 12000 ng·h/mL
- AUC(0-t) [1, 5]: 11600 ng·h/mL
- Cmax [1, 5]: 2960 ng/mL
- Tmax [1, 5]: 0.5 h
- half-life [1, 5]: 5.7 h
- Bioavailability (absolute, oral to IV AUC0-∞5 ratio) [1, 6]: 110%
- F [1, 6]: 1.1
- distribution phase complete (time postdose) ([1]; male, Sprague-Dawley, rat, in vivo, iv): approximately 2 hrs
- AUC0-∞5 (AUC0-∞ normalized to a total dose amount of 5 mg MX) [1, 7]: 11284 ng·h/mL
- AUC(0-inf) [1, 7]: 12700 ng·h/mL
- AUC(0-t) [1, 7]: 12500 ng·h/mL
- Cmax [1, 7]: 15500 ng/mL
- Tmax [1, 7]: 0.08 h
- half-life [1, 7]: 5.2 h
- AUC0-∞5 (AUC0-∞ normalized to a total dose amount of 5 mg MX) [1, 8]: 12420 ng·h/mL
- AUC(0-inf) [1, 8]: 13800 ng·h/mL
- AUC(0-t) [1, 8]: 13600 ng·h/mL
- Cmax [1, 8]: 2200 ng/mL
- Tmax [1, 8]: 1 h
- half-life [1, 8]: 4.2 h
- clinical signs of toxicity ([1]; rats, 20 mg/kg body weight intravenously or orally): no clinical signs of toxicity
- reversal of resistance to pemetrexed chemotherapy (NCI-H460 tumors): reversed resistance
- reversal of resistance to pemetrexed chemotherapy (HCT116 tumors): reversed resistance
- topoisomerase II-mediated cleavage of MX-AP sites (topoisomerase II): MX-AP sites are able to stimulate topoisomerase II-mediated DNA cleavage

Structure (SMILES): Nc1nc2[nH]cc(CCc3ccc(C(=O)N[C@@H](CCC(=O)O)C(=O)O)cc3)c2c(=O)[nH]1 [pemetrexed, 2-[4-[2-(4-amino-2-oxo-3,5,7-triazabicyclo[4.3.0]nona-3,8,10-trien-9-yl)ethyl]benzoyl]aminopentanedioic acid]
- number of detectable AP sites over time (H460 cells; 200 μM pemetrexed, 6 mM MX, 24 hrs, 48 hrs and 72 hrs): number of detectable AP sites were reduced
- formation of AP sites (H460 cells): induces the formation of AP sites
- formation of AP sites (H460 cells; listed as Pemetrexed): induced the formation of AP sites
